{
  "source": "PubChem BioAssay AID602427",
  "about": "(Sanford-Burnham Center for Chemical Genomics, 2012)",
  "note": "Active and inactive are the calls of the source.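 The calls were made as follows: active = EC50 at or below 20 micromolar; inactive = the rest.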",
  "data": [
    {"target": "Neurotensin receptor type 1 (Homo sapiens) (UniProt P30989)", "sequence (P30989 whole entry, looked up)": "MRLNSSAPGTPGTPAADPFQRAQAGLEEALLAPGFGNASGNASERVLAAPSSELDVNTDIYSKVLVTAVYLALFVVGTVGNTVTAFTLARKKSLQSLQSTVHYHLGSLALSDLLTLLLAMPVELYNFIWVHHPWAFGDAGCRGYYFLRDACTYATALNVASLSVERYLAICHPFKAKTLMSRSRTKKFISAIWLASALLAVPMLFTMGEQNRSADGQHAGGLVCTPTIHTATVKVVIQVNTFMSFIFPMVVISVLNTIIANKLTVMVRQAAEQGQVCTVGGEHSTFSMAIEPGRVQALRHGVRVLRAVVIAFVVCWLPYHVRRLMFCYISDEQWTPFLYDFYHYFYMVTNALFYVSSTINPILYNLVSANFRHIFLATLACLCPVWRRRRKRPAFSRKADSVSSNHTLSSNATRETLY", "assay": "NTR1 agonists, beta-arrestin recruitment, SAR follow-up, orthogonal assay for NTR1 agonist project, cell-based, luminescence, CHO-K1 NTSR1 PathHunter (AID 602427);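 also: agonist potency for NTR1 activation where higher luminescence means more arrestin recruitment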", "values": [
      {"compound": "COc1cccc(OC)c1-c1cc(C(=O)NC2(C(=O)O)C3CC4CC(C3)CC2C4)nn1-c1ccc(C(=O)N(C)CCCN(C)C)cc1C(C)C", "note": "(configuration not stated)", "EC50": "> 33 µM (inactive)"},
      {"compound": "Fc1ccc(-c2nnc3c4cc5c(cc4n(Cc4ccccc4)cc2-3)OCO5)cc1", "EC50": "> 33 µM (inactive)"},
      {"compound": "COc1ccc2nc(C3CCC3)nc(N3CCN(c4ccccc4OC)CC3)c2c1", "EC50": "inactive"},
      {"compound": "COc1ccc(-c2nnc3c4ccccc4n(Cc4ccc(C)cc4)cc2-3)cc1", "EC50": "> 33 µM (inactive)"},
      {"compound": "Cc1ccc(Cn2cc3c(-c4ccc(C)cc4)nnc-3c3cc4c(cc32)OCO4)cc1", "EC50": "> 33 µM (inactive)"},
      {"compound": "COc1cc2nc(-c3ccccc3)nc(N3CCN(c4ccc(Cl)cc4)CC3)c2cc1OC", "EC50": "> 33 µM (inactive)"},
      {"compound": "COc1ccc(N2CCN(c3nc(C4CCC4)nc4cc(OC)c(OC)cc34)CC2)cc1", "EC50": "> 33 µM (inactive)"},
      {"compound": "Cc1cccc(-n2ncc3c(N4CCN(c5ccccc5)CC4)ncnc32)c1", "EC50": "> 33 µM (inactive)"},
      {"compound": "COc1ccc(-c2nnc3c4ccccc4n(Cc4ccc(F)cc4)cc2-3)cc1", "EC50": "> 33 µM (inactive)"},
      {"compound": "COc1cc2c3nnc(-c4ccc(F)cc4)c-3cn(Cc3ccc(OC(F)(F)F)cc3)c2cc1OC", "EC50": "> 33 µM (inactive)"},
      {"compound": "COc1cc2c(=O)c(C(=O)c3ccc(F)cc3)cn(Cc3ccc(OC(F)(F)F)cc3)c2cc1OC", "EC50": "> 33 µM (inactive)"},
      {"compound": "CN(C)S(=O)(=O)c1ccc(-c2csc(N/N=C/c3cccs3)n2)cc1", "EC50": "> 33 µM (inactive)"},
      {"compound": "COc1cc2c3nnc(-c4ccccc4)c-3cn(Cc3ccc(F)cc3)c2cc1OC", "EC50": "> 33 µM (inactive)"},
      {"compound": "COc1ccc(-c2nnc3c4ccccc4n(Cc4ccncc4)cc2-3)cc1", "EC50": "> 33 µM (inactive)"},
      {"compound": "COc1cccc(OC)c1-c1cc(C(=O)O)nn1-c1ccnc2cc(Cl)ccc12", "EC50": "> 33 µM (inactive)"},
      {"compound": "COc1cc2c3nnc(-c4ccc(F)cc4)c-3cn(Cc3ccncc3)c2cc1OC", "EC50": "> 33 µM (inactive)"},
      {"compound": "COc1ccccc1N1CCN(c2nc(C3CCC3)nc3ccccc23)CC1", "EC50": "> 33 µM (inactive)"},
      {"compound": "Cc1cccc(C)c1-c1nc(C(=O)N[C@@H](CC(C)C)C(=O)O)cn1-c1ccnc2cc(Cl)ccc12", "EC50": "> 33 µM (inactive)"},
      {"compound": "COc1cccc(OC)c1-c1nc(C(=O)N[C@@H](CC(C)C)C(=O)O)cn1-c1ccnc2ccccc12", "EC50": "18.2 µM"},
      {"compound": "COc1ccc(C(=O)c2cn(Cc3ccc(N(C)C)cc3)c3ccccc3c2=O)cc1", "EC50": "> 33 µM (inactive)"},
      {"compound": "COc1cc2nc(-c3ccccc3)nc(N3CCN(c4ccc(F)cc4)CC3)c2cc1OC", "EC50": "> 33 µM (inactive)"},
      {"compound": "COc1ccc(Cn2cc3c(-c4ccc(OC)cc4)nnc-3c3ccccc32)cc1", "EC50": "> 33 µM (inactive)"},
      {"compound": "COc1ccc(Cn2c(SCc3ccccc3C)nc3cc(OC)c(OC)cc3c2=N)cc1Cl", "EC50": "> 33 µM (inactive)"},
      {"compound": "COc1cc2c3nnc(-c4ccc(F)cc4)c-3cn(CCc3ccccc3)c2cc1OC", "EC50": "> 33 µM (inactive)"},
      {"compound": "CCN(CC)S(=O)(=O)c1ccc(-c2csc(N/N=C/c3ccco3)n2)cc1", "EC50": "> 33 µM (inactive)"},
      {"compound": "Cc1ccc(-c2nnc3c4cc5c(cc4n(Cc4ccc(F)cc4)cc2-3)OCO5)cc1", "EC50": "> 33 µM (inactive)"},
      {"compound": "COc1ccc(-c2nnc3c4cc(OC)c(OC)cc4n(Cc4ccc(C)cc4)cc2-3)cc1", "EC50": "15.5 µM"},
      {"compound": "COc1ccc(Cn2cc(C(=O)c3ccc(F)cc3)c(=O)c3cc(OC)c(OC)cc32)cc1", "EC50": "> 33 µM (inactive)"},
      {"compound": "COc1cc2c3nnc(-c4ccc(F)cc4)c-3cn(Cc3cccc(C)c3)c2cc1OC", "EC50": "> 33 µM (inactive)"},
      {"compound": "Cc1ccc(-n2ncc3c(N4CCN(c5ccccc5)CC4)ncnc32)c(C)c1", "EC50": "> 33 µM (inactive)"},
      {"compound": "COc1cccc(OC)c1-c1nc(C(=O)N[C@@H](CC(C)C)C(=O)O)cn1-c1ccc(C)cc1", "EC50": "> 33 µM (inactive)"},
      {"compound": "Cc1ccc(-n2ncc3c(N4CCN(c5ccc([N+](=O)[O-])cc5)CC4)ncnc32)c(C)c1", "EC50": "> 33 µM (inactive)"},
      {"compound": "COc1cc2c3nnc(-c4ccc(C)cc4)c-3cn(Cc3ccc(F)cc3)c2cc1OC", "EC50": "inactive"},
      {"compound": "CCOc1ccc(-c2nnc3c4cc(OC)c(OC)cc4n(Cc4ccccc4)cc2-3)cc1", "EC50": "inactive"},
      {"compound": "Clc1ccc(-n2ncc3c(N4CCN(c5ccccc5)CC4)ncnc32)cc1", "EC50": "> 33 µM (inactive)"},
      {"compound": "COc1cccc(OC)c1-c1nc(C(=O)NC2(C(=O)O)C3CC4CC(C3)CC2C4)cn1-c1ccnc2cc(Cl)ccc12", "note": "(configuration not stated)", "EC50": "> 33 µM (inactive)"},
      {"compound": "COc1ccc2c3nnc(-c4ccc(C)cc4)c-3cn(Cc3ccc(C)cc3)c2c1", "EC50": "> 33 µM (inactive)"}
    ]}
  ]
}
